Values quoted from earlier work, collected in patent publication US20160324856A1, “USE OF SGC STIMULATORS FOR THE TREATMENT OF NEUROMUSCULAR DISORDERS” (IRONWOOD PHARMACEUTICALS, INC., priority 2014, published 2016).

Tests used:
[1] = system: mdx mouse
[2] = system: dystrophin-deficient zebrafish

Which cardiac dynamics ([1]; mdx mice) does the source give for `CCCc1nn(C)c2c(=O)[nH]c(-c3cc(S(=O)(=O)N4CCN(C)CC4)ccc3OCC)nc12` [sildenafil] here?
The cardiac dynamics was “improve cardiac dynamics”.

What about the “muscle ischemia, injury and fatigue” value ([1]; mdx mouse, after a brief bout of exercise) of the same molecule?
The value was “alleviate muscle ischemia, as well as injury and fatigue”.

And the “dystrophic skeletal muscle and survival” value [2]?
Its value is “rescue dystrophic skeletal muscle and prolong survival”.
